Test results published in PubChem BioAssay AID330 (DTP/NCI, 2004).
Values joined by “and” are separate entries in the source; they are usually repeats but may differ in a detail not shown here. Equal values may be shown once. Inconclusive results and toxic doses are left out. How the source made its calls: active means survival T/C of 150% or more; inactive means T/C below 125% in these data.

System: P388 leukemia ip, CD2F1 mice, survival T/C
Test: NCI In Vivo Anticancer Drug Screen. Data for tumor model P388 Leukemia (intraperitoneal) in CD2F1 (CDF1) mice
Details: endpoint: median survival time, higher = longer survival
Procedure, shortened: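 Mice carrying the transplanted tumor received test compound or vehicle. Survival was recorded in each group, and the value is the treated-group measurement divided by that of the vehicle-treated control group.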

[1] = dose: 100.0 mg/kg/injection, schedule: Q01DX009 (ip), vehicle: saline with Tween-80
[2] = dose: 200.0 mg/kg/injection, schedule: Q01DX009 (ip), vehicle: saline with Tween-80
[3] = dose: 400.0 mg/kg/injection, schedule: Q01DX009 (ip), vehicle: saline with Tween-80
[4] = dose: 100.0 mg/kg/injection, schedule: Q01DX009 (ip), vehicle: Klucel (hydroxypropylcellulose) (HPC)
[5] = dose: 60.0 mg/kg/injection, schedule: Q01DX005 (ip), vehicle: saline with Tween-80
[6] = dose: 120.0 mg/kg/injection, schedule: Q01DX005 (ip), vehicle: saline with Tween-80
[7] = dose: 240.0 mg/kg/injection, schedule: Q01DX005 (ip), vehicle: saline with Tween-80
[8] = dose: 60.0 mg/kg/injection, schedule: Q01DX005 (ip), vehicle: saline
[9] = dose: 120.0 mg/kg/injection, schedule: Q01DX005 (ip), vehicle: saline
[10] = dose: 240.0 mg/kg/injection, schedule: Q01DX005 (ip), vehicle: saline
[11] = dose: 25.0 mg/kg/injection, schedule: Q01DX001 (ip), vehicle: saline with Tween-80
[12] = dose: 50.0 mg/kg/injection, schedule: Q01DX001 (ip), vehicle: saline with Tween-80
[13] = dose: 100.0 mg/kg/injection, schedule: Q01DX001 (ip), vehicle: saline with Tween-80
[14] = dose: 50.0 mg/kg/injection, schedule: Q01DX005 (ip), vehicle: saline with Tween-80
[15] = dose: 100.0 mg/kg/injection, schedule: Q01DX005 (ip), vehicle: saline with Tween-80
[16] = dose: 200.0 mg/kg/injection, schedule: Q01DX005 (ip), vehicle: saline with Tween-80
[17] = dose: 50.0 mg/kg/injection, schedule: Q01DX009 (ip), vehicle: saline
[18] = dose: 100.0 mg/kg/injection, schedule: Q01DX009 (ip), vehicle: saline
[19] = dose: 200.0 mg/kg/injection, schedule: Q01DX009 (ip), vehicle: saline

Measured: T/C

Cc1nnc(NC(=O)c2cc(=O)c3ccccc3o2)s1
inactive: dose: 100.0 mg/kg/injection, schedule: Q04DX002 (ip), vehicle: saline with Tween-80 99 % of control | dose: 200.0 mg/kg/injection, schedule: Q04DX002 (ip), vehicle: saline with Tween-80 94 % of control | dose: 400.0 mg/kg/injection, schedule: Q04DX002 (ip), vehicle: saline with Tween-80 93 % of control

O=[N+]([O-])c1ccccc1CSc1ncnc2nc[nH]c12
inactive: dose: 50.0 mg/kg/injection, schedule: Q04DX003 (ip), vehicle: saline with Tween-80 95 % of control | [1] 90 % of control | dose: 100.0 mg/kg/injection, schedule: Q04DX003 (ip), vehicle: saline with Tween-80 109 % of control | [2] 100 % of control | dose: 200.0 mg/kg/injection, schedule: Q04DX003 (ip), vehicle: saline with Tween-80 104 % of control | [3] 118 % of control

C=C1C(=O)OC2/C=C(\CO)C(OC(C)=O)CC(O)/C(C)=C/C(OC(=O)C(C)CC)C12 (configuration not stated)
inactive: dose: 6.25 mg/kg/injection, schedule: Q01DX009 (ip), vehicle: Klucel (hydroxypropylcellulose) (HPC) 111 % of control | dose: 12.5 mg/kg/injection, schedule: Q01DX009 (ip), vehicle: Klucel (hydroxypropylcellulose) (HPC) 119 % of control | [4] 121 % of control

Nc1nnc(/C=C/c2ccc(Cl)cc2)o1
inactive: [5] 98 % of control | [6] 105 % of control | [7] 106 % of control

C[N+]1(C)CCc2c([nH]c3ccccc23)C1
inactive: dose: 100.0 mg/kg/injection, schedule: Q01DX001 (ip), vehicle: suspension in saline 95 % of control | dose: 200.0 mg/kg/injection, schedule: Q01DX001 (ip), vehicle: suspension in saline 107 % of control

Nc1nc(N)nc(-c2cccc(Cl)c2)n1
inactive: [5] 100 % of control | [6] 98 % of control | [7] 100 % of control

Cc1cc(-c2cc(C)nc(N)n2)nc(N)n1
inactive: [8] 100 % of control | [9] 100 % of control | [10] 108 % of control

CN(C)c1ccc(/C=c2\[nH]c(=O)/c(=C\c3ccc(N(C)C)cc3)[nH]c2=O)cc1
inactive: dose: 12.5 mg/kg/injection, schedule: Q01DX001 (ip), vehicle: saline with Tween-80 97 % of control | [11] 99 % of control | [12] 99 % of control | dose: 50.0 mg/kg/injection, schedule: Q01DX009 (ip), vehicle: saline with Tween-80 98 % of control | [13] 99 % of control | [1] 90 % of control | [2] 87 % of control | [3] 90 % of control

Cc1cc2cc3c(=O)[nH]c(=O)nc-3n(CC(O)C(O)C(O)CO)c2cc1C (configuration not stated)
inactive: dose: 15.0 mg/kg/injection, schedule: Q01DX005 (ip), vehicle: saline with Tween-80 101 % of control and 103 % of control | dose: 30.0 mg/kg/injection, schedule: Q01DX005 (ip), vehicle: saline with Tween-80 116 % of control and 98 % of control

COCCO[Si](OCCOC)(OCCOC)c1ccccc1
inactive: dose: 50.0 mg/kg/injection, schedule: Q01DX009 (ip), vehicle: Klucel (hydroxypropylcellulose) (HPC) 101 % of control | [4] 107 % of control | dose: 200.0 mg/kg/injection, schedule: Q01DX009 (ip), vehicle: Klucel (hydroxypropylcellulose) (HPC) 117 % of control

O=C(O)C(Nc1ccc2ccccc2c1)C(=O)O
inactive: [14] 94 % of control | [15] 103 % of control | [16] 94 % of control

COc1c(N)c2c(c([N+](=O)[O-])c1OC)C(=O)OC2
inactive: dose: 50.0 mg/kg/injection, schedule: Q01DX005 (ip), vehicle: Klucel (hydroxypropylcellulose) (HPC) 103 % of control | dose: 100.0 mg/kg/injection, schedule: Q01DX005 (ip), vehicle: Klucel (hydroxypropylcellulose) (HPC) 93 % of control | dose: 200.0 mg/kg/injection, schedule: Q01DX005 (ip), vehicle: Klucel (hydroxypropylcellulose) (HPC) 97 % of control

Nc1nnc(Cc2ccc(Cl)cc2)o1
inactive: [5] 95 % of control | [6] 105 % of control | [7] 105 % of control

CC(C)(C)c1cc(/C=N\O)cc(C(C)(C)C)c1O
inactive: [17] 98 % of control | [18] 107 % of control | [19] 107 % of control

COc1cc2c(cc1O)c[n+](C)c1c3cc(OC)c(OC)cc3ccc21
inactive: dose: 7.8 mg/kg/injection, schedule: Q01DX009 (ip), vehicle: other 107 % of control | dose: 31.3 mg/kg/injection, schedule: Q01DX009 (ip), vehicle: other 122 % of control | dose: 62.5 mg/kg/injection, schedule: Q01DX009 (ip), vehicle: other 120 % of control | dose: 125.0 mg/kg/injection, schedule: Q01DX009 (ip), vehicle: other 120 % of control

Cc1cc(Nc2ccc3c(c2)OCO3)c2cc(C3CCCCC3)ccc2n1
inactive: [5] 95 % of control | [6] 91 % of control

CN(C)c1ccc2c(Oc3ccccc3)cc(N)nc2c1
inactive: [14] 94 % of control | [15] 92 % of control | [16] 92 % of control

CN1N=C(c2ccccc2)N=P12N=C(c1ccccc1)NN2C (configuration not stated)
inactive: [8] 94 % of control | [9] 102 % of control | [10] 103 % of control

CCS(=O)(=O)C(C(O)C(O)C(O)C(C)O)S(=O)(=O)CC (configuration not stated)
inactive: [17] 100 % of control | [18] 100 % of control | [19] 96 % of control

O=C1NC(=O)c2ccc3c4c(ccc1c24)C(=O)NC3=O
inactive: dose: 15.5 mg/kg/injection, schedule: Q01DX009 (ip), vehicle: saline with Tween-80 95 % of control | dose: 31.0 mg/kg/injection, schedule: Q01DX009 (ip), vehicle: saline with Tween-80 95 % of control | dose: 62.0 mg/kg/injection, schedule: Q01DX009 (ip), vehicle: saline with Tween-80 91 % of control

COC(=O)c1cc(OC(C)=O)c2cc3c(cc2c1-c1cc(OC)c(OC)c(OC)c1)OCO3
inactive: dose: 100.0 mg/kg/injection, schedule: Q04DX003 (ip), vehicle: Klucel (hydroxypropylcellulose) (HPC) 93 % of control | dose: 200.0 mg/kg/injection, schedule: Q04DX003 (ip), vehicle: Klucel (hydroxypropylcellulose) (HPC) 89 % of control

O=c1[nH][nH]c(=O)c2c1Nc1c(c(=O)[nH][nH]c1=O)C2c1ccncc1
inactive: [14] 103 % of control | [15] 108 % of control | [16] 96 % of control

CS/C(Nc1ccccc1)=C1\CCCn2c1nc1ccccc1c2=O
inactive: [11] 105 % of control | [12] 99 % of control | [13] 90 % of control and 91 % of control

COC(=S)C(=S)OC
inactive: dose: 12.5 mg/kg/injection, schedule: Q01DX009 (ip), vehicle: saline with Tween-80 108 % of control | dose: 25.0 mg/kg/injection, schedule: Q01DX009 (ip), vehicle: saline with Tween-80 108 % of control

Cc1cccc(CC(O)c2ccc(C=O)cc2)n1 (configuration not stated)
inactive: [5] 105 % of control | [6] 98 % of control | [7] 98 % of control

CCn1c(=O)c2c(N(CCO)CCO)snc2n(CC)c1=O
inactive: dose: 100.0 mg/kg/injection, schedule: Q04DX002 (ip), vehicle: suspension in saline 104 % of control | dose: 200.0 mg/kg/injection, schedule: Q04DX002 (ip), vehicle: suspension in saline 101 % of control | dose: 400.0 mg/kg/injection, schedule: Q04DX002 (ip), vehicle: suspension in saline 102 % of control
